#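 1) Cells in 96-well plates. 2) Compound, 48 h, 5 concentrations. 3) Linear interpolation between surrounding doses. 4) Unreached endpoint = highest concentration. At the GI50, growth is halved.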 Activity calls are given as the source filed them. No stated cut-off is given here; in the data, active = GI50 up to about 1.1 µM and inactive = higher.
# Legend:
# Experiment in all cases: inhibition of tumour cell growth, NCI panel, 48 h
# [1] = test system: LOX IMVI
# [2] = test system: HCT-15
# [3] = test system: OVCAR-8
# [4] = test system: SK-MEL-28
# [5] = test system: ACHN
# [6] = test system: MDA-MB-435
# [7] = test system: M14
# [8] = test system: HL-60
# [9] = test system: A498
# [10] = test system: SW-620
# [11] = test system: NCI-H460
# [12] = test system: UACC-62
# [13] = test system: HOP-92
# [14] = test system: OVCAR-4
# [15] = test system: NCI/ADR-RES
# [16] = test system: T47D
# [17] = test system: SK-OV-3
# [18] = test system: PC-3
# [19] = test system: NCI-H522
# [20] = test system: SF-539
Compound,GI50 [1],GI50 [2],GI50 [3],GI50 [4],GI50 [5],GI50 [6],GI50 [7],GI50 [8],GI50 [9],GI50 [10],GI50 [11],GI50 [12],GI50 [13],GI50 [14],GI50 [15],GI50 [16],GI50 [17],GI50 [18],GI50 [19],GI50 [20]
O=C(OCc1ccccc1)N(CCCCN(CCCNCc1ccccc1)C(=O)OCc1ccccc1)CCCNCc1ccccc1,0.22 µM (active),0.352 µM,1.54 µM (inactive),1.62 µM (inactive),1.51 µM (inactive),0.242 µM (active),0.252 µM (active),0.186 µM (active),0.889 µM (active),0.221 µM (active),0.188 µM (active),0.881 µM (active),0.12 µM (active),1.66 µM (inactive),1.71 µM (inactive),1.98 µM (inactive),14.5 µM (inactive),1.11 µM (active),0.647 µM (active),0.243 µM (active)
CC(C)C(/N=C/c1ccccc1O)C(=O)O (stereo not drawn),> 100 µM (inactive),> 100 µM,> 100 µM (inactive),> 100 µM (inactive),> 100 µM (inactive),> 100 µM (inactive),> 100 µM (inactive),> 100 µM (inactive),> 100 µM (inactive),> 100 µM (inactive),> 100 µM (inactive),> 100 µM (inactive),> 100 µM (inactive),> 100 µM (inactive),> 100 µM (inactive),> 100 µM (inactive),> 100 µM (inactive),87.7 µM (inactive),> 100 µM (inactive),> 100 µM (inactive)
Cc1c(C(=O)O)n2c(S)nnc2c2ccccc12,> 100 µM (inactive),> 100 µM,> 100 µM (inactive),> 100 µM (inactive),> 100 µM (inactive),> 100 µM (inactive),> 100 µM (inactive),> 100 µM (inactive),> 100 µM (inactive),> 100 µM (inactive),> 100 µM (inactive),> 100 µM (inactive),> 100 µM (inactive),> 100 µM (inactive),> 100 µM (inactive),> 100 µM (inactive),> 100 µM (inactive),> 100 µM (inactive),> 100 µM (inactive),> 100 µM (inactive)
CCOC(=O)/C(C(=S)NC)=C(/N)N1CCCC1,> 100 µM (inactive),> 100 µM,> 100 µM (inactive),> 100 µM (inactive),> 100 µM (inactive),> 100 µM (inactive),> 100 µM (inactive),> 100 µM (inactive),> 100 µM (inactive),> 100 µM (inactive),> 100 µM (inactive),> 100 µM (inactive),> 100 µM (inactive),> 100 µM (inactive),> 100 µM (inactive),> 100 µM (inactive),> 100 µM (inactive),> 100 µM (inactive),> 100 µM (inactive),> 100 µM (inactive)
Cn1c2ccccc2n2c3nc4ccccc4nc3c(C#N)c12,> 100 µM (inactive),9.29 µM,74.1 µM (inactive),> 100 µM (inactive),75.3 µM (inactive),> 85.7 µM (inactive),> 100 µM (inactive),> 87.9 µM (inactive),6.44 µM (inactive),74.8 µM (inactive),5.48 µM (inactive),65.5 µM (inactive),> 100 µM (inactive),> 71.8 µM (inactive),> 100 µM (inactive),21.4 µM (inactive),99.5 µM (inactive),> 96.8 µM (inactive),5.9 µM (inactive),62.8 µM (inactive)
COc1c(/C=C/C(C)(C)O)cc(C2CC(=O)c3c(O)cc(O)cc3O2)cc1CC=C(C)C (stereo not drawn),4.44 µM (inactive),8.2 µM,10.8 µM (inactive),13.2 µM (inactive),7.6 µM (inactive),8.02 µM (inactive),8.45 µM (inactive),12.8 µM (inactive),9.48 µM (inactive),17.3 µM (inactive),8.73 µM (inactive),6.79 µM (inactive),10.3 µM (inactive),10.4 µM (inactive),12.1 µM (inactive),11 µM (inactive),7.83 µM (inactive),8.53 µM (inactive),9.27 µM (inactive),9.4 µM (inactive)
COc1ccc2c(c1)c1nn(CCN3CCCCC3)c3ccc4c(=O)n(CCN(C)C)c(=O)n2c4c13,< 0.01 µM (active),< 0.01 µM,< 0.01 µM (active),0.139 µM (active),< 0.01 µM (active),< 0.0109 µM (active),0.0188 µM (active),0.076 µM (active),< 0.022 µM (active),< 0.01 µM (active),< 0.01 µM (active),0.0304 µM (active),0.152 µM (active),< 0.01 µM (active),< 0.153 µM (active),< 0.0175 µM (active),0.565 µM (active),0.019 µM (active),< 0.01 µM (active),0.0284 µM (active)
CC(C)=CC(O)C/C(C)=C/CC/C(C)=C/CCC1(C)C(CCCO)/C(=C(/C)C=O)CCC1(C)O (stereo not drawn),32.5 µM (inactive),46.3 µM,47 µM (inactive),29.6 µM (inactive),20.6 µM (inactive),31 µM (inactive),26.1 µM (inactive),23 µM (inactive),34.2 µM (inactive),40.6 µM (inactive),25.6 µM (inactive),35.9 µM (inactive),22.8 µM (inactive),25.5 µM (inactive),65.3 µM (inactive),61.9 µM (inactive),47.8 µM (inactive),44.8 µM (inactive),39.7 µM (inactive),25.1 µM (inactive)
CN(CCCNC(=O)c1cc(-c2ccccc2)nc2ccccc12)CCCNC(=O)c1cc(-c2ccccc2)nc2ccccc12,1.85 µM (inactive),4 µM,2.32 µM (inactive),1.83 µM (inactive),2.81 µM (inactive),1.76 µM (inactive),1.71 µM (inactive),2.19 µM (inactive),4.41 µM (inactive),1.85 µM (inactive),1.78 µM (inactive),2.07 µM (inactive),2.64 µM (inactive),3.54 µM (inactive),2.84 µM (inactive),2.95 µM (inactive),13 µM (inactive),3.56 µM (inactive),1.77 µM (inactive),2.2 µM (inactive)
CN(C)/N=C1/CCC(C(F)(F)F)(C(F)(F)F)O1,33.6 µM (inactive),41.4 µM,–,39.6 µM (inactive),35.6 µM (inactive),27.5 µM (inactive),25.1 µM (inactive),28.3 µM (inactive),21.4 µM (inactive),40.6 µM (inactive),41 µM (inactive),28.1 µM (inactive),32.7 µM (inactive),47.6 µM (inactive),26.6 µM (inactive),33.2 µM (inactive),38.3 µM (inactive),28.9 µM (inactive),35.2 µM (inactive),45.4 µM (inactive)
C(=N\c1ccc(-c2nc3ccccc3s2)cc1)/c1ccc[nH]1,17.3 µM (inactive),13.6 µM,27.6 µM (inactive),20.1 µM (inactive),20.7 µM (inactive),19.2 µM (inactive),17.9 µM (inactive),16.5 µM (inactive),15.7 µM (inactive),22.4 µM (inactive),17.1 µM (inactive),15.6 µM (inactive),17.4 µM (inactive),23.8 µM (inactive),13.3 µM (inactive),13.4 µM (inactive),17.7 µM (inactive),14.9 µM (inactive),14.1 µM (inactive),17.6 µM (inactive)
Nc1cc2c(nnn2C2OC(COCc3ccccc3)C(OCc3ccccc3)C2OCc2ccccc2)c(=O)[nH]1 (stereo not drawn),14.1 µM (inactive),40.3 µM,18.9 µM (inactive),46.9 µM (inactive),32.8 µM (inactive),10.9 µM (inactive),13.5 µM (inactive),5.47 µM (inactive),48.8 µM (inactive),37 µM (inactive),15.9 µM (inactive),14.9 µM (inactive),28.4 µM (inactive),12.5 µM (inactive),> 100 µM (inactive),5.9 µM (inactive),33.3 µM (inactive),6.4 µM (inactive),18.9 µM (inactive),21.6 µM (inactive)
CC[C@@]1(O)C(=O)OCc2c1cc1n(c2=O)Cc2c-1nc1ccccc1c2/C=N/NC(=O)c1ccc(N)cc1,0.0273 µM (active),2.95 µM,0.0944 µM (active),0.263 µM (active),0.0244 µM (active),0.197 µM (active),0.0585 µM (active),0.0327 µM (active),0.33 µM (active),0.0796 µM (active),0.0796 µM (active),0.0208 µM (active),0.0447 µM (active),3.73 µM (inactive),0.392 µM (active),< 0.01 µM (active),0.158 µM (active),0.177 µM (active),< 0.0405 µM (active),< 0.01 µM (active)
O=C(NC(O)(C(F)(F)F)C(F)(F)F)c1ccccc1,> 100 µM (inactive),> 100 µM,> 100 µM (inactive),> 100 µM (inactive),> 100 µM (inactive),> 100 µM (inactive),> 100 µM (inactive),> 100 µM (inactive),> 100 µM (inactive),> 100 µM (inactive),> 100 µM (inactive),–,> 100 µM (inactive),> 100 µM (inactive),> 100 µM (inactive),> 100 µM (inactive),> 100 µM (inactive),> 100 µM (inactive),> 100 µM (inactive),> 100 µM (inactive)

# — ChEMBL document CHEMBL1201862, “PubChem BioAssay data set” (2004)
